Test results published in patent publication US5684026A, “Aminocyclopentane derivative” (priority 1994, dated 1997).

Experiments:
Format in all cases: biochemical
[1] = target: β-Glucosidase (Almonds, EC 3.2.1.21); assay: β-Glucosidase enzyme inhibition assay (p-nitrophenyl β-D-glucopyranoside)
Method: (§1) By using a 96-well microplate, the absorbance (at 405 nm) of liberated p- or o-nitrophenol was measured with a microplate reader (MPR-4Ai, manufactured by Tosoh Corporation).
Incubation was carried out at 37° C. by using a natural incubator (Compact NIB-10, manufactured by Iwaki Glass Co., Ltd.).
(§2) The enzymes employed herein [α-glucosidase (Baker's yeast), β-glucosidase (Almonds), α-galactosidase (E. coli), β-galactosidase (E. coli) and β-galactosidase (Bovine Liver)] were all purchased from Sigma.
(§3) The substrates (p- or o-nitrophenylglycoside) of these enzymes were all purchased from Sigma.
2) β-Glucosidase (Almonds, EC 3.2.1.21) [described in A. Kobayashi, Agr. Biol. Chem., 26, 203-207 (1962)]
Into each well were introduced an aqueous solution of a sample (1 μl), a 0.33 mM solution of p-nitrophenyl β-D-glucopyranoside in a buffer (98 μl) and a (0.4 mg/ml) enzyme solution in the buffer (1 μl) to give a total volume of 100 μl. After incubating at 37° C. for 45 minutes, the reaction was ceased by adding a 1M aqueous solution of sodium carbonate (100 μl). Then the absorbance (A405) of p-nitrophenol liberated by this enzyme reaction was measured. To give the blank absorbance (Ablank), the sample (1 μl) and the substrate (99 μl) were incubated in the same manner and an aqueous solution of sodium carbonate (100 μl) was added followed by the measurement of the absorbance. […] As the buffer, a 0.1M acetate buffer solution (pH 5.0, prepared from NaOAc and AcOH) was employed. The IC50 was determined in the same manner as employed in the case of α-glucosidase.

[2] = system: α-Galactosidase (E. Coli, EC. 3.2.1.22); assay: α-Galactosidase enzyme inhibition assay (p-nitrophenyl α-D-galactopyranoside); conditions: pH 6.5, room temperature, 15 minutes
Method: as §1, §2, §3
3) α-Galactosidase (E. Coli, EC. 3.2.1.22) [described in H. Suzuki, S-C. Li and Y-T. Li, J. Biol. Chem., 245, 781-786 (1970)]
Into each well were introduced an aqueous solution of a sample (1 μl), a buffer (74 μl), a 9.9 mM solution of p-nitrophenyl α-D-galactopyranoside in a buffer (20 μl) and a (50 μg/ml) enzyme solution in the buffer (5 μl) to give a total volume of 100 μl. After incubating the resulting mixture at room temperature (20°-30° C.) for 15 minutes, the reaction was ceased by adding a 0.2M borate buffer solution (pH 9.8, prepared from NaOH and H3 BO3, 100 μl). Then the absorbance (A405) of p-nitrophenol liberated by this enzyme reaction was measured. To give the blank absorbance (Ablank), the sample (1 μl), the substrate (20 μl) and the buffer solution (79 μl) were incubated in the same manner and the 0.2M borate buffer solution (100 μl) was added followed by the measurement of the absorbance. To give the control absorbance ([…]), on the other hand, water (1 μl), the substrate (20 μl), the buffer solution (74 μl) and the enzyme solution (5 μl) were incubated in the same manner and the borate buffer solution (100 μl) was added followed by the measurement of the absorbance. A 0.1M phosphate buffer solution (pH 6.5, prepared from KH2 PO4 and K2 HPO4) was employed as the buffer for the enzyme reaction. The IC50 was determined in the same manner as employed in the case of α-glucosidase.

[3] = target: T1, β-Galactosidase (E. Coli, EC. 3.2.1.23) (Escherichia coli, UniProt P00722); assay: β-Galactosidase (E. coli) enzyme inhibition assay (o-nitrophenyl β-D-galactopyranoside); conditions: pH 7.3, room temperature, 30 minutes; read-out: IC50 (M) β-Galactosidase (E. coli)
T1 construct: purchased Sigma; host or cells: E. coli
T1 sequence (P00722 2-1024 limits assumed): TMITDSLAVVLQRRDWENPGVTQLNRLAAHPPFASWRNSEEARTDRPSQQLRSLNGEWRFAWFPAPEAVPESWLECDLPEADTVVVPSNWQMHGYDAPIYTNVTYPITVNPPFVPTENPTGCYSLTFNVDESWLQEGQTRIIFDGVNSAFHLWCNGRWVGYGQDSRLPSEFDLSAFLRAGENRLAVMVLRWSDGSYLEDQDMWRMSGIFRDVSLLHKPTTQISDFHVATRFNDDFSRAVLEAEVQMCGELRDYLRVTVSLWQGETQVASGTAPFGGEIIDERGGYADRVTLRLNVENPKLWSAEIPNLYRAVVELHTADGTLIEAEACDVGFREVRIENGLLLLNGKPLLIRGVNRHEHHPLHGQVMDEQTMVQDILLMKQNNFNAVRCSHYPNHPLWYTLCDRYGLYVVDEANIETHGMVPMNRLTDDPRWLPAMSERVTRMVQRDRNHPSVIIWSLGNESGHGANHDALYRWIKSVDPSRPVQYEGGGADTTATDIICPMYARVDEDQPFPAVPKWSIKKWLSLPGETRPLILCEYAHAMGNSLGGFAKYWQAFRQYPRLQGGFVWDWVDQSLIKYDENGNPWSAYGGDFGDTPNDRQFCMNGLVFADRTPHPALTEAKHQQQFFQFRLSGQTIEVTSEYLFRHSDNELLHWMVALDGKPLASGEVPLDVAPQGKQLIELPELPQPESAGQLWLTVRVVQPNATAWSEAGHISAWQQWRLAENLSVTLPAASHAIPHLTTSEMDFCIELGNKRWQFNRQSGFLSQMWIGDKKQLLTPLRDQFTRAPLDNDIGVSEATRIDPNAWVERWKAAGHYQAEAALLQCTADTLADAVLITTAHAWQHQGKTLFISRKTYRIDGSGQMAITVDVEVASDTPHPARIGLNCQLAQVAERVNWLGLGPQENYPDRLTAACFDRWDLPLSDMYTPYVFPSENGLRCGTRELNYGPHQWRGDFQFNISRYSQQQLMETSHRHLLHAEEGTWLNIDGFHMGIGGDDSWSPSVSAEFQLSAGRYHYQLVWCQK
Method: as §1, §2, §3
4) β-Galactosidase (E. Coli, EC. 3.2.1.23) [described in G. R. Craven, E. Steers, Jr. and C. B. Anfinsen, J. Biol. Chem., 240, 2468-2477 (1965)]
Into each well were introduced an aqueous solution of a sample (2 μl), a buffer (153 μl), a 20 mM solution of o-nitrophenyl β-D-galactopyranoside in a buffer (25 μl), a 100 mM 2-mercaptoethanol (10 μl) and a (10 μg/ml) enzyme solution in the buffer (10 μl) to give a total volume of 200 μl. After incubating at room temperature (20°-30° C.) for 30 minutes, the absorbance (A405) of o-nitrophenol liberated by this enzyme reaction was measured. To give the blank absorbance (Ablank), the sample (2 μl), the substrate (25 μl), the buffer solution (163 μl) and 2-mercaptoethanol (10 μl) were incubated in the same manner followed by the measurement of the absorbance. To give the control absorbance (Acontrol), on the other hand, water (2 μl), the substrate (25 μl), the buffer solution (153 μl), 2-mercaptoethanol (10 μl) and the enzyme solution (10 μl) were incubated in the same manner followed by the measurement of the absorbance. A 50 mM phosphate buffer solution (pH 7.3, prepared from KH2 PO4 and K2 HPO4, containing 1.3 mM of MgCl2) was employed as the buffer for the enzyme reaction. The IC50 was determined in the same manner as employed in the case of α-glucosidase.

OC[C@@]12OC(Nc3ccccc3)=N[C@@H]1[C@H](O)[C@@H](O)[C@@H]2O [Compound 1-2L, (1S,5R,6S,7R,8S)-1-hydroxymethyl-3-phenylamino-2-oxa-4-azabicyclo[3.3.0]oct-3-ene-6,7,8-triol]
IC50 ([1]; pH 5.0, 37° C., 45 minutes): > 300 µM
inhibitory activity against β-glucosidase (in words) ([1]; summary of Table 1): weak inhibitory activities
IC50 [2]: > 300 µM
IC50 [3]: > 0.0003 M
